Data on two molecules can be found in patent publication US8299102B2, “Heteroarylcyclopropanecarboxamides and their use as pharmaceuticals” (Sanofi, priority 2006, dated 2012).

Structures can show the parent of a compound that is named as a salt.

This assay concerns eNOS promoter. Put plainly: Activation of eNOS transcription (eNOS promoter firefly luciferase reporter gene assay). The format is cell-based. To be noted: human endothelial cell line stably transfected with eNOS promoter-luciferase construct; 18 h incubation; determined graphically; read-out: EC50 values of transcription induction ratios (TIR). As to the method:
Activation of eNOS transcription was measured as described in detail by Li et al., “Activation of protein kinase C alpha and/or epsilon enhances transcription of the human endothelial nitric oxide synthase gene”, Mol. Pharmacol. 53 (1998) 630. Briefly, a 3.5 kB long fragment 5′ of the starting codon of the eNOS gene was cloned, sequenced and cloned in firefly luciferase expression plasmids to monitor activation of the eNOS promoter by reporter gene activity. A human endothelial cell line stable transfected and expressing this promoter-reporter construct was used for compound testing. Cells were incubated for 18 h with the compounds.
All compounds were dissolved in sterile dimethyl sulfoxide (DMSO). A final concentration of 0.5% DMSO in complete medium was allowed. Induction of reporter gene expression in these cells was measured using a standard luciferase assay system (Promega, Cat. No. E150) according to the manufacturer's instructions. Luciferase induction in cells incubated with compounds were compared to those incubated with solvent alone. The ratio of both activities (transcription induction ratio, TIR) was plotted as a function of compound concentration. […] EC50 values of transcription induction ratios as a function of compound concentration were determined graphically.
(In general: Reporter assays use an easily measured gene product as a stand-in for the process of interest.)

Take `O=C([C@@H]1C[C@H]1c1ccc(-c2ccc(F)cc2)nc1)N1CCCC1` (relative stereo) [Example 46, {trans-2-[6-(4-fluoro-phenyl)-pyridin-3-yl]-cyclopropyl}-(pyrrolidin-1-yl)-methanone trifluoroacetic acid salt]: the EC50 lay in the range of 500 to 5000 nM.
As for `CN(C)C(=O)[C@@H]1C[C@H]1c1ccc(-c2ccccc2F)nc1` (relative stereo) [Example 49, trans-2-[6-(2-Fluoro-phenyl)-pyridin-3-yl]-cyclopropanecarboxylic acid dimethylamide trifluoroacetic acid salt], the figure is under 500 nM.
